Measured values as given in US20100105644A1, “BOTANICAL COMPOSITION FOR ENHANCED SKIN REPAIR AND USES THEREOF” (The Regents of the University of Michigan, priority 2008, published 2010).

Columns and labels:
[1] = In vitro activities of purified 6-gingerol compared with the crude ginger extract; settings: 6-gingerol purified to greater than 95%
From the text: The ginger root is also a source of multiple biologically active gingerol compounds, including 6-gingerol, 8-gingerol, 10-gingerol, 6-paradol, 6-shagoal and cassumunin. 6-gingerol is the most abundant analogue in the extract used here, and represents approximately 32% of the total extract. […] In addition, synthetic curcuminoids and synthetic gingerols are also available. One goal is to have a preparation that is inexpensive to prepare so that individuals at risk for non-healing skin ulcers can utilize it on a long-term basis as a wound preventative.

[2] = tested on: skin of healthy hairless rats; experiment: Topical treatment of healthy hairless rats: gross appearance and irritation of the skin; format: in vivo, rat; settings: topical once daily for 14 days, 10% curcumin and 3% ginger extract alone and in combination
Procedure: The botanicals were dissolved in a vehicle (70% ethanol and 30% propylene glycol) at 10.0% for curcumin and 3% for the ginger extract. The concentrations chosen for the two botanicals were based on results from preliminary in vitro studies and in vivo studies with healthy hairless rats.
Based on in vitro experiments in which a wide range of concentrations of both curcumin and the ginger extract were tested, healthy hairless rats were treated topically once daily for 14 days with solutions containing 10% curcumin and 3% ginger extract, alone and in combination. Control rats were treated with vehicle alone. Animals were monitored closely during the treatment period of any visible changes in gross appearance of the skin. […] At the end of the treatment period, skin from the treated site of each animal was obtained. The skin was incubated in organ culture for 3 days.

type I collagen [3] = experiment: Soluble type I collagen (Western blot) in organ culture fluid of skin from topically treated healthy hairless rats; format: in vivo, rat; settings: 10% curcumin / 3% ginger extract topical, skin in organ culture 3 days, compared to control skin
Procedure: (§1) Wounding was performed under sterile conditions in a laminar flow hood. Wound size was determined daily by measuring the X-axis and Y-axis of the scabbed wound and calculating the area of the remaining scab. At the time of wound closure, animals were sacrificed and duplicate 6 mm skin punches were collected from wounded and healed skin. One biopsy was fixed in 10% buffered formalin and used for histological analysis. The other biopsy was put in organ culture for 3 days. Briefly, the skin was cut into pieces of approximately 2 mm on a side, and four-five such pieces were incubated for 3 days in 0.5 mL of a culture medium consisting of growth factor-free, serum-free, Keratinocyte Basal Medium (KBM) (Lonza, Walkersville, Md.). Before use, the culture medium was supplemented with Ca^2+ to a final concentration of 1.4 mM. At the end of the 3-day incubation period, the organ culture fluid was collected and assayed for soluble type I collagen by western blotting and MMP-2 and -9 gelatin zymography (see below).

MMP-9 [4] = experiment: MMP-9 (gelatin zymography) in organ culture fluid of skin from topically treated healthy hairless rats; format: in vivo, rat; settings: 10% curcumin / 3% ginger extract topical, skin in organ culture 3 days, compared to control skin
Procedure: as §1
(§2) Analysis of Metalloproteinases: MMP-2 and MMP-9: Gelatin-embedded enzymography (zymography) was used to assess levels of latent and active MMP-2 and MMP-9 in organ culture fluids. SDS-PAGE gels were prepared with the incorporation of gelatin (1 mg/mL) at the time of casting.

MMP-2 [5] = experiment: MMP-2 (gelatin zymography) in organ culture fluid of skin from topically treated healthy hairless rats; format: in vivo, rat; settings: 10% curcumin / 3% ginger extract topical, skin in organ culture 3 days, compared to control skin
Procedure: as §1, §2

[6] = tested on: abrasion wounds in skin of corticosteroid-treated hairless rats; experiment: Abrasion wound healing in corticosteroid-treated hairless rats; format: in vivo, rat; settings: 21 days pretreatment, then 15 days with Temovate; 10% curcumin, 3% ginger extract; compared to Temovate plus vehicle alone
Procedure: Rat Model: Hairless rats were treated for 21 days topically over the back and flank with 500 μL of solutions containing 10% curcumin, 3% ginger extract or the combination of the two. Vehicle alone served as control. During the treatment phase, animals were examined daily for changes in the gross appearance of the skin. After the initial 21-day pretreatment period, rats were treated with Temovate® (clobetasol propionate) cream along with the botanicals for an additional 15 day period. Temovate® (0.05% solution of clobetasol propionate in cream base) was obtained from Glaxo Smith Kline (Philadelphia, Pa.). Temovate® was applied in the morning and botanicals were applied in the evening. At the end of the treatment period, abrasion wounding was performed. […] A pre-measured circular area, approximately 6 cm in diameter, was scrubbed with a stiff-nylon bristle brush lightly wetted with acetone and concomitantly abraded with a piece of course sanding sponge. […]
Wounding was performed under sterile conditions in a laminar flow hood. Wound size was determined daily by measuring the X-axis and Y-axis of the scabbed wound and calculating the area of the remaining scab. […]
Statistical Analysis: Data were analyzed using one-way analysis of variance (ANOVA) followed by the Bonferroni posttest for selected pairs (GraphPad Prism version 4.00 for Windows, GraphPad Software, San Diego, Calif.). […]

type I collagen [7] = experiment: Soluble type I collagen (Western blot) in organ culture fluid of healed wound skin, Temovate rat model; format: in vivo
Procedure: Wounding was performed under sterile conditions in a laminar flow hood. Wound size was determined daily by measuring the X-axis and Y-axis of the scabbed wound and calculating the area of the remaining scab. At the time of wound closure, animals were sacrificed and duplicate 6 mm skin punches were collected from wounded and healed skin. One biopsy was fixed in 10% buffered formalin and used for histological analysis. The other biopsy was put in organ culture for 3 days. […]
Analysis of Type I Collagen: Organ culture fluids were assayed for type I collagen by Western blot analysis. Briefly, organ culture fluids representing an equal quantity of protein were resolved using 8% SDS-PAGE under non-reducing conditions and transferred to nitrocellulose membranes. […] The membranes were then washed with TTBS and bound antibody was detected using the Phototope-HRP western detection kit (Cell Signaling Technologies, Inc., Danvers, Mass.). Images were scanned, digitized, and quantified using NIH image analysis software.
At the time of wound closure, skin from the center of the initial wound (most recently healed skin) was obtained and incubated in organ culture for three days. Organ culture fluids were collected at the end of the incubation period and analyzed for type I collagen and MMP-2/MMP-9. […]

MMP-2 [8] = experiment: MMP-2 (gelatin zymography) in organ culture fluid of healed wound skin, Temovate rat model; format: in vivo; settings: botanical treatment of Temovate-treated rats
Procedure: as §1, with “At the end of the 3-day incubation period, the organ culture fluid was collected and assayed for soluble type I collagen by western blotting and MMP-2 and -9 gelatin zymography (see below).” left out
(§3) Analysis of Metalloproteinases: MMP-2 and MMP-9: Gelatin-embedded enzymography (zymography) was used to assess levels of latent and active MMP-2 and MMP-9 in organ culture fluids. […] After electrophoresis under non-reducing conditions to separate proteins and overnight incubation to allow for substrate digestion, zones of hydrolysis were identified as “holes” in the stained gels and quantified. Values for latent and active MMPs-2 and -9 bands were obtained following digitization and quantification. […]

MMP-9 [9] = experiment: MMP-9 (gelatin zymography) in organ culture fluid of healed wound skin, Temovate rat model; format: in vivo; settings: botanical treatment of Temovate-treated rats
Procedure: as §1, with “At the end of the 3-day incubation period, the organ culture fluid was collected and assayed for soluble type I collagen by western blotting and MMP-2 and -9 gelatin zymography (see below).” left out
as §3

MMP-1 [10] = experiment: MMP-1 levels in human skin organ culture fluid; format: cell-based; settings: increasing amounts of curcumin added to 1 μg per mL ginger extract
Procedure: Human skin was incubated in organ culture under control conditions (Ca^2+-supplemented KBM culture medium) or in the same culture medium with 1 μg per mL ginger extract. Increasing amounts of curcumin were added. […] Human skin was incubated in organ culture under control conditions (Ca^2+-supplemented KBM culture medium) or in the same culture medium with 1 μg per mL ginger extract. Increasing amounts of curcumin were added.

MMP-1 [11] = experiment: MMP-1 levels in human dermal fibroblast culture fluid; format: cell-based; settings: increasing amounts of curcumin added to 1 μg per mL ginger extract
Procedure: Fibroblasts were incubated under control conditions (Ca^2+-supplemented KBM culture medium) or in the same culture medium supplemented with 1 μg per mL ginger extract. Increasing amounts of curcumin (X-axis) were added. […] Fibroblasts were incubated under control conditions (Ca^2+—supplemented KBM culture medium) or in the same culture medium supplemented with 1 μg per mL ginger extract. Increasing amounts of curcumin were added.

epidermal keratinocytes = experiment: Epidermal keratinocyte proliferation
From the text: There are several surprising and unexpected ways in which the combination of curcumin and 6-gingerol functions. First, these compounds promote collagen building in combination. On one hand, the ginger compound serves to raise the level of collagen-degrading enzymes, such as matrix metalloproteinases (MMPs), as one of its functions. On the other hand, the curcumin compound suppresses the MMP elevation stimulated by the ginger compound. Second, the combination promotes vascularization. During wound healing there is the need for new vascularization. However, new vessel growth needs to halt at some point and some vessels need to regress at a time when the wounded skin is fully healed. The ginger compound stimulates new vessel formation and the combination of curcumin and ginger extract result in a reduction in the number of capillaries in the skin at the end of the wound healing. This allows the skin to return to quiescence. Third, the combination promotes epidermal proliferation. Skin irritation is intimately associated with epidermal hyperplasia. The ginger compound stimulates epidermal keratinocyte proliferation while the curcumin compound suppresses ginger extract-induced keratinocyte growth. This may be the underlying factor responsible for the absence of irritation by the combination, for example, as compared to irritation observed with retinoid therapy. […]

## CCCCCC(O)CC(=O)CCc1ccc(OC)c(O)c1 (stereo not shown) [6-gingerol, 5-hydroxy-1-(3-hydroxy-4-methoxyphenyl)decan-3-one]
[1]
  in vitro activities compared with the crude extract: same in vitro activities as the crude extract itself

## COc1cc(/C=C/C(=O)CC(=O)/C=C/c2ccc(O)c(OC)c2)ccc1O [curcumin, (1E,6E)-1,7-bis(4-hydroxy-3-methoxyphenyl)hepta-1,6-diene-3,5-dione]
[2]
  skin irritation: No irritation
Type I collagen [3]
  soluble type I collagen in organ culture fluid: increased
MMP-9 [4]
  MMP-9 in organ culture fluid: decreased
MMP-2 [5]
  MMP-2 in organ culture fluid: decrease
[6]
  wound closure (percent of wound healed): improved
Type I collagen [7]; botanicals prior to and during Temovate treatment, compared to rats treated with Temovate and vehicle
  type I collagen in organ culture fluid: elevated
Type I collagen [7]; treatment along with Temovate, compared to control culture fluids from rats not exposed to Temovate
  type I collagen in organ culture fluid: higher
MMP-2 [8]
  MMP-2 level in organ culture fluid: reduced
MMP-9 [9]
  MMP-9 level in organ culture fluid: reduced
MMP-1 [10]
  ginger extract-induced MMP-1 expression in human skin organ culture fluid: inhibited
MMP-1 [11]
  ginger extract-induced MMP-1 expression in fibroblast culture fluid: inhibited
Epidermal keratinocytes
  ginger extract-induced keratinocyte growth: suppresses
